Converted amounts (≈) assume the structure as drawn. Where a SMILES comes first, the peptide text is derived from it. [ ]: non-standard residue; d: D form. Ac6c = NC1(C(=O)O)CCCCC1; Api = NC1(C(=O)O)CCNCC1; Aib = CC(C)(N)C(=O)O
Legend:
Assay type in all cases: functional
[1] = % helicity of the compound
Staphylococcus aureus = test: In vitro antibacterial activity of the peptide was tested against Staphylococcus aureus
Mus musculus [2] = test: In vivo antimicrobial activity of 500 microg peptide against Brucella abortus in chronically infected BALB/c mice
Escherichia coli = test: In vitro antibacterial activity of the peptide was tested against Escherichia coli
Mus musculus [3] = test: In vivo antimicrobial activity of 1 mg peptide against Brucella abortus in chronically infected BALB/c mice

Row | Compound | Helicity [1] | MIC (Staphylococcus aureus) | Reduction (Mus musculus [2]) | MIC (Escherichia coli) | Reduction (Mus musculus [3])
1 | CC(C)(N)C(=O)NC(C)(C)C(=O)N[C@@H](CCCCN)C(=O)N[C@H](CCCCN)C(=O)NC(C)(C)C(=O)NC(C)(C)C(=O)N[C@@H](CCCCN)C(=O)NC(C)(C)C(=O)NC(C)(C)C(=O)N[C@H](CCCCN)C(=O)N[C@@H](CCCCN)C(=O)NC(C)(C)C(=O)NC(C)(C)C(=O)N[C@H](CCCCN)C(=O)O | 42% |  |  |  | 
2 | CC(C)(N)C(=O)NC(C)(C)C(=O)N[C@@H](CCCCN)C(=O)N[C@H](CCCCN)C(=O)NC(C)(C)C(=O)NC(C)(C)C(=O)N[C@@H](CCCCN)C(=O)NC(C)(C)C(=O)NC(C)(C)C(=O)N[C@H](CCCCN)C(=O)N[C@@H](CCCCN)C(=O)O | 35% |  |  |  | 
3 | CC(C)(N)C(=O)NC(C)(C)C(=O)N[C@H](CCCCN)C(=O)NC1(C(=O)NC(C)(C)C(=O)NC(C)(C)C(=O)N[C@H](CCCCN)C(=O)NC2(C(=O)NC(C)(C)C(=O)NC(C)(C)C(=O)O)CCNCC2)CCNCC1 | 43% |  |  |  | 
4 | NCCCC[C@H](NC(=O)[C@@H](CCCCN)NC(=O)C1(NC(=O)C2(NC(=O)[C@H](CCCCN)NC(=O)C3(NC(=O)C4(NC(=O)[C@@H](CCCCN)NC(=O)[C@H](CCCCN)NC(=O)C5(N)CCCCC5)CCCCC4)CCCCC3)CCCCC2)CCCCC1)C(=O)O | 43% |  |  |  | 
5 | CC(=O)N[C@@H](CCCCN)C(=O)N[C@@H](CCCCN)C(=O)NC(C)(C)C(=O)NC(C)(C)C(=O)N[C@@H](CCCCN)C(=O)NC(C)(C)C(=O)NC(C)(C)C(=O)N[C@@H](CCCCN)C(=O)N[C@@H](CCCCN)C(=O)NC(C)(C)C(=O)NC(C)(C)C(N)=O (Ac-KK[Aib][Aib]K[Aib][Aib]KK[Aib][Aib]-NH2) |  | 212 µM (≈ 257 µg/mL) | 30% | 6.6 µM (≈ 7.99 µg/mL) | 
6 | NCCCC[C@H](NC(=O)[C@H](CCCCN)NC(=O)C1(NC(=O)C2(NC(=O)[C@H](CCCCN)NC(=O)C3(NC(=O)C4(NC(=O)[C@H](CCCCN)NC(=O)[C@@H](N)CCCCN)CCCCC4)CCCCC3)CCCCC2)CCCCC1)C(=O)NC1(C(N)=O)CCCCC1 (H-KK[Ac6c][Ac6c]K[Ac6c][Ac6c]KK[Ac6c]-NH2) |  | 2.8 µM (≈ 3.59 µg/mL) |  | 5.7 µM (≈ 7.32 µg/mL) | 
7 | NCCCC[C@H](NC(=O)[C@H](CCCCN)NC(=O)C1(NC(=O)C2(NC(=O)[C@H](CCCCN)NC(=O)C3(NC(=O)C4(NC(=O)[C@H](CCCCN)NC(=O)[C@@H](N)CCCCN)CCCCC4)CCCCC3)CCCCC2)CCCCC1)C(=O)NC1(C(=O)NC2(C(N)=O)CCCCC2)CCCCC1 (H-KK[Ac6c][Ac6c]K[Ac6c][Ac6c]KK[Ac6c][Ac6c]-NH2) |  | 2.6 µM (≈ 3.66 µg/mL) |  | 5.2 µM (≈ 7.33 µg/mL) | 
8 | CC(C)(NC(=O)C(C)(C)NC(=O)[C@H](CCCCN)NC(=O)[C@H](CCCCN)NC(=O)C(C)(C)NC(=O)C(C)(C)NC(=O)[C@H](CCCCN)NC(=O)C(C)(C)NC(=O)C(C)(C)NC(=O)[C@H](CCCCN)NC(=O)[C@@H](N)CCCCN)C(N)=O (H-KK[Aib][Aib]K[Aib][Aib]KK[Aib][Aib]-NH2) |  | > 220 µM | <63% | 55 µM (≈ 64.3 µg/mL) | 
9 | NCCCC[C@H](NC(=O)[C@H](CCCCN)NC(=O)C1(NC(=O)C2(NC(=O)[C@H](CCCCN)NC(=O)C3(NC(=O)C4(NC(=O)[C@H](CCCCN)NC(=O)[C@H](CCCCN)NC(=O)C5(NC(=O)C6(NC(=O)[C@@H](N)CCCCN)CCCCC6)CCCCC5)CCCCC4)CCCCC3)CCCCC2)CCCCC1)C(=O)NC1(C(N)=O)CCCCC1 (H-K[Ac6c][Ac6c]KK[Ac6c][Ac6c]K[Ac6c][Ac6c]KK[Ac6c]-NH2) |  | 2.2 µM (≈ 3.66 µg/mL) |  | 4.5 µM (≈ 7.48 µg/mL) | 
10 | CC(C)(NC(=O)C(C)(C)NC(=O)[C@H](CCCCN)NC(=O)[C@H](CCCCN)NC(=O)C(C)(C)NC(=O)C(C)(C)NC(=O)[C@H](CCCCN)NC(=O)C(C)(C)NC(=O)C(C)(C)NC(=O)[C@H](CCCCN)NC(=O)[C@H](CCCCN)NC(=O)C(C)(C)NC(=O)C(C)(C)NC(=O)[C@@H](N)CCCCN)C(N)=O (H-K[Aib][Aib]KK[Aib][Aib]K[Aib][Aib]KK[Aib][Aib]-NH2) |  | 11 µM (≈ 16.1 µg/mL) | <73% | 5.5 µM (≈ 8.07 µg/mL) | 
11 | CC(C)(N)C(=O)NC(C)(C)C(=O)NC1(C(=O)N[C@@H](CCCCN)C(=O)NC(C)(C)C(=O)NC(C)(C)C(=O)NC2(C(=O)N[C@@H](CCCCN)C(=O)NC(C)(C)C(=O)NC(C)(C)C(N)=O)CCNCC2)CCNCC1 (H-[Aib][Aib][Api]K[Aib][Aib][Api]K[Aib][Aib]-NH2) |  | 123 µM (≈ 127 µg/mL) | 90% | 7.7 µM (≈ 7.98 µg/mL) | 
12 | H-KAAKKAAKAAKKAA-NH2 |  | > 178 µM |  | > 178 µM | 6%
